Assays:
HEK293T cells = experiment: Cell viability assay (CellTiter Glo); assay type: cell-based, human; settings: for IC50: Homo sapiens, HEK-293T, log10 transformed, IC50 = concentration that suppresses 50% cell viability, HEK293T cells; for Therapeutic index: ratio of IC50 (cell viability) over EC50 (NPEPPS activity)
Procedure: HEK293T cells (AATC) were maintained in complete media and cell viability assay was conducted in a fresh-prepared minimal medium containing essential amino acids, vitamin, AlbuMax (Invitrogen 11021-029) in 1×HBS buffer. White 384-well assay plates (Greiner EK-30080) were coated with poly-L-ornithine (0.1 mg/ml) overnight and washed once with 1×PBS. 15 μl minimal medium was then added to each well. 250 nl of compounds dissolved in OmniSolve DMSO were pinned to each well via Biomek FX^P Liquid Handling Automation from compound source plates. Cells were harvested, resuspended in minimal medium, and seeded at 16,500 cells/15 μl/well in the 384-well assay plates. 24 hrs later, 25 μl/well CellTiter Glo reagent (Promega G7572) was added into each well, and luminescence (0.5 second integration time) was acquired following manufacture's protocol. Luminescence count normalized to DMSO control is used as a readout of cell viability.
(§1) To investigate the effects of JMM compounds that enhance NPEPPS activity and assess their cellular toxicity, 139 compounds in the JMM series (i.e., JMM001-JMM139) were tested in dose responses (20-step, 2-fold dilution) using NPEPPS activity and viability assays in HEK293T cells. 76 compounds harboring different modifications produce concentration-dependent enhancement on NPEPPS activity compared to DMSO control (FIG. 4). […] A therapeutic index (TI, a ratio of IC50 over EC50) is used to evaluate the relative safety profiles of the compounds. […] 16 JMM compounds show both improved potency and reduced toxicity (EC50<10 μM and TI>10, Table 1).

NPEPPS = target: T1, NPEPPS (Homo sapiens, UniProt P55786); experiment: Cell-based NPEPPS activity assay (Q-AMC fluorescence); settings: log10 transformed; EC50 = concentration that elevates 50% NPEPPS activity (150% of DMSO baseline); HEK293T cells
T1 construct: endogenous in cells; host or cells: HEK293T
Procedure: HEK293T cells (AATC) were maintained in a complete media containing DMEM (Gibco 11995-065) in the presence of 10% fetal bovine serum (FBS, Gibco 10082147), […] penicillin and 50 μg/ml streptomycin (Gibco 15140163) at 37° C. with 5% CO2. NPEPPS activity assay was conducted in a fresh-prepared minimal medium containing essential amino acids, vitamin, AlbuMax (Invitrogen 11021-029) in 1×HBS buffer. Black wall, clear bottom 384-well assay plates (Greiner EK-30092) were coated with poly-L-ornithine (0.1 mg/ml, Sigma P3655) overnight and washed once with 1×PBS. 15 μl minimal medium was then added to each well. 250 nL of compounds dissolved in OmniSolve methylsulfoxide (dimethyl sulfoxide, DMSO, Sigma MX1456P) were pinned to each well via Biomek FX^P Liquid Handling Automation (Beckman Coulter) from compound source plates, i.e., either pre-made compound libraries or JMM compounds (20-step, 2-fold dilution) dissolved in OmniSolve DMSO prepared via Biomek automation in 384-well clear V-bottom polypropylene microplates (ThermoScientific 50-823-639). Cells were harvested, resuspended in minimal medium, and seeded at 16,500 cells/15 μl/well in the 384-well assay plates. 24 hrs later, 30 μl 200 μM H-Gln-AMC hydrobromide salt (Q-AMC, Bachem #I-1175) in 1×HBS containing 0.1% DMSO was added into each well. The fluorescent signal at excitation/emission wavelengths of 360/460 nm was measured immediately upon Q-AMC addition and 3 hrs post-Q-AMC. The change in fluorescence is measured as a readout of NPEPPS activity.
To identify small molecules that either increase NPEPPS levels or NPEPPS activity, a cell-based NPEPPS activity assay amenable to high-throughput screening (HTS) by adapting a fluorescent peptidase activity assay^2 was developed. Since NPEPPS is one of the only aminopeptidases capable of cleaving glutamine-peptide bonds^3 and the major aminopeptidase responsible for degradation of poly-glutamine sequences in the brain^4, a fluorogenic compound, glutamine-7-amino-4-methylcoumarin (Q-AMC), was selected as a substrate to measure NPEPPS activity. The peptide bond of Q-AMC is hydrolyzed by NPEPPS to release glutamine and a fluorescent product, 7-amino-4-methylcoumarin (AMC), when Q-AMC is added directly to the cell culture media. This change in fluorescence is measured as a readout of aminopeptidase activity (FIG. 2A). Overexpression of NPEPPS in HEK293T cells results in a significant increase in fluorescence, whereas knock-down or chemical inhibition of NPEPPS decrease fluorescence change (FIG. 2B-D), validating that the changes in fluorescence observed in the Q-AMC-based assay directly correlate with changes in NPEPPS activity. A high-throughput (HTS) screen (201,845 compounds) was conducted at the UCLA MSSR core (FIG. 2E). Follow-up assays and chemical clustering identified three series of compounds with distinct chemical clusters (FIG. 2F).
as §1

T1 sequence (P55786 whole entry): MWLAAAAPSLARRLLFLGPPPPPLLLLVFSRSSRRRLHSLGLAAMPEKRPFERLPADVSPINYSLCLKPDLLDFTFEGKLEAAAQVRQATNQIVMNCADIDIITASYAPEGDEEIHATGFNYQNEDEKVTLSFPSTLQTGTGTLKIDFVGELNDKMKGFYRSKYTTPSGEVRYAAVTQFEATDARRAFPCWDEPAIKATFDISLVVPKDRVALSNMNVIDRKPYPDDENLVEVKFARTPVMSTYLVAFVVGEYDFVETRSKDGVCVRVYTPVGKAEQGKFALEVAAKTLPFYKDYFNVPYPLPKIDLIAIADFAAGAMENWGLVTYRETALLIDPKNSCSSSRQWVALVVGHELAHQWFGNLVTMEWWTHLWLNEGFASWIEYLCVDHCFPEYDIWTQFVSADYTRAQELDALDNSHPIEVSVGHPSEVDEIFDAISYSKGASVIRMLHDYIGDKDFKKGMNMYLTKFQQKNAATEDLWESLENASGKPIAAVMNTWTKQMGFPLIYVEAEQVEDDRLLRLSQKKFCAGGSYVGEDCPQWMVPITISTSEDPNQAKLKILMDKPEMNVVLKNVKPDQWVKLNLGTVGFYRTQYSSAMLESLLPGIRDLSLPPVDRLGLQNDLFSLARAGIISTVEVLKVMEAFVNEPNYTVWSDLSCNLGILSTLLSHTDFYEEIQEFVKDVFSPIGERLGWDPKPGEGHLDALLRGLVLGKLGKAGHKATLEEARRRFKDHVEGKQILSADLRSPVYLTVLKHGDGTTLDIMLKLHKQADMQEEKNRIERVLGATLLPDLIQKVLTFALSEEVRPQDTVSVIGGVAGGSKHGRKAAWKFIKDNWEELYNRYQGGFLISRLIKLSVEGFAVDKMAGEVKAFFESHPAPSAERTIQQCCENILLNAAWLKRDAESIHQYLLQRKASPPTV

| EC50 (NPEPPS) | Structure (SMILES) | IC50 (HEK293T cells) | Therapeutic index (HEK293T cells) |
| --- | --- | --- | --- |
| 70.8 µM | C[C@H](Nc1nsc2ccccc12)c1cccc2ccccc12 [JMM101] | 407 µM | 5.74 |
| 1.05 µM | Clc1ccc(COc2ccc(CNc3nsc4ccc(OCc5ccccc5)cc34)cc2)cc1Cl [JMM103] | 1620 µM | 1543.93 |
| 2.29 µM | CN(Cc1ccc(OCc2ccccc2)cc1)c1nsc2cnccc12 [JMM078] | 49 µM | 21.66 |
| 525 µM | COc1ccc(CNc2ncccn2)cc1OC [JMM048] | 562 µM | 1.09 |
| 5.75 µM | COc1ccc(CNc2nsc3c(F)cccc23)cc1OC [JMM042] | 58.9 µM | 10.41 |
| 61.7 µM | FC(F)(F)c1ccc(COc2ccc3snc(NCc4ccc(OCc5ccccc5)cc4)c3c2)cc1 [JMM131, N-(4-(Benzyloxy)benzyl)-5-((4-(trifluoromethyl)benzyl)oxy)benzo[d]isothiazol-3-amine] | 355 µM | 5.78 |
| 12.9 µM | c1ccc(COc2ccc(CNc3nsc4ccccc34)cc2)cc1 [JMM014] | 22.4 µM | 1.75 |
| 158 µM | COC(=O)c1ccc(CNc2nsc3ccccc23)cc1 [JMM024] | 437 µM | 2.76 |
| 41.7 µM | COc1ccc(CNc2nsc3cccc(OC)c23)cc1OC [JMM026] | 129 µM | 3.05 |
| 9.77 µM | Clc1ccc(C(Nc2nsc3ccccc23)c2ccc(Cl)cc2)cc1 [JMM076] | 20 µM | 2.03 |
| 53.7 µM | Fc1cccc2c(NCc3ccc(C(F)(F)F)cc3)nsc12 [JMM027] | 52.5 µM | 0.98 |
| 6.46 µM | FC(F)(F)c1ccc(CNc2nsc3ccc(OCc4ccccc4)cc23)cc1 [JMM066] | 174 µM | 27.03 |
| 32.4 µM | Clc1ccc(CNc2nsc3ccccc23)cc1Cl [JMM021] | 58.9 µM | 1.80 |
| 11.5 µM | c1ccc(COc2ccc3snc(NCc4ccc(OCC5CCCCC5)cc4)c3c2)cc1 [JMM127, 5-(Benzyloxy)-N-(4-(cyclohexylmethoxy)benzyl)benzo[d]isothiazol-3-amine] | 15.8 µM | 1.38 |
| 28.8 µM | FC(F)(F)c1ccc(CNc2nsc3c(Br)cccc23)cc1 [JMM028] | 33.9 µM | 1.19 |
| 4.47 µM | c1ccc(COc2ccc3snc(NCc4ccc(OCC5CCC5)cc4)c3c2)cc1 [JMM128, 5-(Benzyloxy)-N-(4-(cyclobutylmethoxy)benzyl)benzo[d]isothiazol-3-amine] | 9.55 µM | 2.12 |
| 22.4 µM | Clc1ccc(CNc2nsc3ccc(OCc4ccccc4)cc23)cc1Cl [JMM090] | 30.9 µM | 1.39 |
| 10.2 µM | Fc1ccc(COc2ccc(CNc3nsc4ccc(OCc5ccccc5)cc34)cc2)c(F)c1 [JMM111, 5-(Benzyloxy)-N-(4-((2,4-difluorobenzyl)oxy)benzyl)benzo[d]isothiazol-3-amine] | 27.5 µM | 2.74 |
| 44.7 µM | c1ccc(COc2ccc3snc(NCc4ccc(Oc5ccccc5)cc4)c3c2)cc1 [JMM115, 5-(Benzyloxy)-N-(4-phenoxybenzyl)benzo[d]isothiazol-3-amine] | 263 µM | 5.83 |
| 219 µM | c1cc(CNc2nsc3ccccc23)c2cc[nH]c2c1 [JMM030] | 257 µM | 1.16 |

| EC50 (NPEPPS) | Structure (SMILES) | IC50 (HEK293T cells) | Therapeutic index (HEK293T cells) |
| --- | --- | --- | --- |
| 240 µM | CN(C)c1ccc(CNc2nsc3ccccc23)cc1 [JMM019] | 195 µM | 0.82 |
| 85.1 µM | COc1ccc(CN(C)c2nsc3ccc(OCc4ccccc4)cc23)cc1 [JMM107, 5-(Benzyloxy)-N-(4-methoxybenzyl)-N-methylbenzo[d]isothiazol-3-amine] | 87.1 µM | 1.04 |
| 186 µM | Fc1cc(Cl)ccc1CNc1nsc2ccccc12 [JMM022] | 6460 µM | 34.72 |
| 7.08 µM | c1ccc(C(Nc2nsc3ccccc23)c2ccccc2)cc1 [JMM029] | 324 µM | 45.28 |
| 22.4 µM | FC(F)(F)c1ccc(CNc2nsc3cnccc23)cc1 [JMM065] | 132 µM | 5.91 |
| 123 µM | FC(F)(F)Oc1ccc(CNc2nsc3ccccc23)cc1 [JMM054] | 132 µM | 1.08 |
| 112 µM | FC(F)(F)c1ccc(CNc2nccc3ccccc23)cc1 [JMM037] | 95.5 µM | 0.84 |
| 17.8 µM | COc1ccc(CN(Cc2ccc(C(F)(F)F)cc2)c2nsc3ccccc23)cc1OC [JMM069] | 1510 µM | 84.99 |
| 138 µM | Fc1ccccc1CNc1nsc2ccccc12 [JMM073] | 316 µM | 2.30 |
| 26.3 µM | Cc1ccccc1COc1ccc(CNc2nsc3ccc(OCc4ccccc4)cc23)cc1 [JMM114, 5-(Benzyloxy)-N-(4-((2-methylbenzyl)oxy)benzyl)benzo[d]isothiazol-3-amine] | 63.1 µM | 2.42 |
| 105 µM | COc1ccc(COc2nsc3ccccc23)cc1OC [JMM104] | 63.1 µM | 0.60 |
| 37.2 µM | COc1ccc2snc(NCc3ccc(OCc4ccccc4)cc3)c2c1 [JMM094] | 178 µM | 4.80 |
| 34.7 µM | Fc1cccc2c(NCc3ccccc3C(F)(F)F)nsc12 [JMM056] | 81.3 µM | 2.34 |
| 3.55 µM | CN(Cc1ccccc1C(F)(F)F)c1nsc2ccccc12 [JMM079] | 69.2 µM | 19.15 |
| 51.3 µM | Cc1ccc(CNc2nsc3ccccc23)cc1 [JMM023] | 229 µM | 4.47 |
| 148 µM | c1ccc2c(NCc3ccncc3)nsc2c1 [JMM012] | 126 µM | 0.86 |
| 7.76 µM | COc1ccc2snc(N(C)Cc3ccc(OCc4ccccc4)cc3)c2c1 [JMM095] | 72.4 µM | 9.25 |
| 162 µM | C[C@@H](Nc1nsc2ccccc12)c1cccc2ccccc12 [JMM102] | 417 µM | 2.54 |
| 148 µM | FC(F)c1ccc(CNc2nsc3ccccc23)cc1 [JMM063] | 195 µM | 1.33 |

From patent US20240174625A1, “COMPOSITIONS AND METHODS FOR TREATING TAUOPATHIES” (The Regents of the University of California, priority 2021, published 2024)
